Assays:
Format in all cases: in vivo
Viola tricolor (VIOTR) [1] = assay: Post-emergence herbicidal action against VIOTR
Procedure, shortened: (§1)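 Doses of 320 g/ha or lower, suffixes a, b and c marking different dosages, were applied post-emergence at the one-leaf stage in 600 l/ha water with 0.5% additive. Damage was assessed visually after about 3 weeks in the greenhouse.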

[2] = system: Verconica persica (VERPE); assay: Pre-emergence herbicidal action against VERPE
Procedure, shortened: (§2)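 Greenhouse pot trial: seeds sown, soil-covered, sprayed before emergence with compound in water (0.5% additive; 600 l/ha; ≤320 g/ha). Scoring visual, ~3 weeks, 0–100% scale vs untreated.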

[3] = system: Matricaria inodora (MATIN); assay: Post-emergence herbicidal action against MATIN
Procedure, shortened: as §1

Setaria viridis (SETVI) = assay: Pre-emergence herbicidal action against SETVI
Procedure, shortened: as §2

[4] = system: Verconica persica (VERPE); assay: Post-emergence herbicidal action against VERPE
Procedure, shortened: as §1

Lolium rigidum (LOLRI) = assay: Pre-emergence herbicidal action against LOLRI
Procedure, shortened: as §2

[5] = system: Abutilon theophrasti (ABUTH); assay: Pre-emergence herbicidal action against ABUTH; conditions: 100% = plants have died
Procedure, shortened: as §2

Viola tricolor (VIOTR) [6] = assay: Pre-emergence herbicidal action against VIOTR
Procedure, shortened: as §2

[7] = system: Amaranthus retroflexus (AMARE); assay: Post-emergence herbicidal action against AMARE
Procedure, shortened: as §1

[8] = system: Abutilon theophrasti (ABUTH); assay: Post-emergence herbicidal action against ABUTH; conditions: visual rating about 3 weeks after treatment vs untreated controls (100% = plants have died, 0% = like control plants)
Procedure, shortened: as §1

[9] = Dosage column 320 g/ha (title prints 3200 g/ha), scored visually after about 3 weeks
[10] = 80 g/ha, visual rating about 3 weeks after treatment vs untreated controls (100% = plants have died, 0% = like control plants)
[11] = 320 g/ha, visual rating about 3 weeks after treatment

Structure (SMILES) | Post-emergence action against VIOTR in % (Viola tricolor (VIOTR) [1]; 80 g/ha) [%] | Post-emergence action against VIOTR in % (Viola tricolor (VIOTR) [1]; 320 g/ha) [%] | Pre-emergence action against VERPE in % ([2]; dosage 320 g/ha) [%] | Post-emergence action against MATIN in % ([3]; dosage 80 g/ha) [%] | Post-emergence action against MATIN in % ([3]; dosage 320 g/ha) [%] | Pre-emergence action against SETVI in % (Setaria viridis (SETVI); dosage 80 g/ha) [%] | Pre-emergence action against SETVI in % (Setaria viridis (SETVI); dosage 320 g/ha) [%] | Post-emergence action against VERPE in % ([4]; 320 g/ha, VERPE) [%] | Pre-emergence action against LOLRI in % (Lolium rigidum (LOLRI); dosage 80 g/ha) [%] | Pre-emergence action against LOLRI in % (Lolium rigidum (LOLRI); dosage 320 g/ha) [%] | Pre-emergence action against ABUTH [5, 9] [%] | Pre-emergence action against VIOTR in % (Viola tricolor (VIOTR) [6]; 320 g/ha, Viola tricolor) [%] | Pre-emergence action against VIOTR in % (Viola tricolor (VIOTR) [6]; dosage 80 g/ha) [%] | Post-emergence action against AMARE in % [7, 10] [%] | Post-emergence action against AMARE in % [7, 11] [%] | Post-emergence action against ABUTH in % ([8]; 320 g/ha) [%] | Pre-emergence action against VERPE in % ([2]; dosage 80 g/ha) [%] | Post-emergence action against VERPE in % ([4]; dosage 80 g/ha) [%] | Post-emergence action against ABUTH in % ([8]; 80 g/ha) [%] | Pre-emergence action against ABUTH ([5]; 80 g/ha, scored visually after about 3 weeks vs untreated controls, 0% = like control plants) [%]
CCOC(=O)COc1nn(-c2nc(F)ccc2F)c(-c2cncc(F)c2)c1C1CC1 [Example I-149] | 80 | 80 | 100 | 80 | 90 | 100 | 100 | 80 | 100 | 100 | 80 | 100 | 100 |  |  |  |  |  |  | 
COC(=O)[C@@H](C)COC(=O)COc1nn(-c2ccccn2)c(-c2cncc(F)c2)c1Br [Example I-194] | 80 | 80 | 90 |  |  | 90 | 100 | 80 | 90 | 100 | 80 | 100 |  | 80 | 90 | 80 |  |  |  | 
C[C@@H](Oc1nn(-c2nc(F)ccc2F)c(-c2cncc(F)c2)c1C1CC1)C(=O)O [Example I-180] | 80 | 80 | 100 |  | 90 | 100 | 100 | 90 | 100 | 100 | 80 | 100 | 100 |  | 90 |  | 100 | 80 |  | 
O=C(O)COc1nn(-c2nc(F)ccc2F)c(-c2cncc(F)c2)c1C1CC1 [Example I-148] | 80 | 80 | 100 | 80 | 80 | 90 | 100 | 80 | 90 | 100 |  | 100 | 100 |  |  |  | 90 | 80 |  | 
CCOC(=O)COc1nn(-c2ncccc2F)c(-c2cncc(F)c2)c1C1CC1 [Example I-174] | 80 | 80 | 100 |  |  | 90 | 100 | 80 | 100 | 100 | 90 | 100 | 100 | 80 | 80 | 80 | 100 | 80 | 80 | 
CCOC(=O)COc1nn(-c2ccccn2)c(-c2ccc(F)nc2)c1Br [Example I-02] |  | 80 | 90 | 80 | 80 | 100 | 100 | 80 | 90 | 100 |  | 100 | 100 | 80 | 80 | 80 |  | 80 | 80 | 
COC(=O)COc1nn(-c2ncccc2F)c(-c2cncc(F)c2)c1C1CC1 [Example I-167] | 80 | 80 | 100 |  |  | 100 | 100 | 80 | 100 | 100 | 90 | 100 | 100 | 80 | 80 | 80 | 100 | 80 | 80 | 
O=C(O)COc1nn(-c2ncccc2F)c(-c2cncc(F)c2)c1C1CC1 [Example I-175] | 80 | 80 | 100 |  |  | 90 | 100 | 80 | 100 | 100 | 90 | 100 | 100 | 80 | 80 | 80 | 100 | 80 | 80 | 80
COC(=O)COc1nn(-c2nc(F)ccc2F)c(-c2cncc(F)c2)c1C1CC1 [Example I-164] |  | 80 | 100 |  | 80 | 100 | 100 | 80 | 100 | 100 | 80 | 100 | 100 |  |  |  | 90 | 80 |  | 
COC(=O)C(C)COC(=O)C(C)Oc1nn(-c2ccccn2)c(-c2ccc(F)nc2)c1Cl (centres unmarked) [Example I-291] | 80 | 80 | 80 |  |  | 90 | 90 | 80 | 90 | 100 |  | 100 | 90 | 80 | 80 | 80 |  |  |  | 
O=C(O)COc1nn(-c2ncccc2F)c(-c2ccc(F)nc2)c1Br [Example I-17] | 80 | 80 | 100 |  |  | 100 | 100 | 80 |  | 100 | 90 | 100 | 100 |  |  |  |  |  |  | 
CCOC(=O)COc1nn(-c2ccccn2)c(-c2ccc(F)nc2)c1Cl [Example I-85] | 100 | 100 | 100 | 80 | 90 | 100 | 100 | 90 |  | 100 |  | 100 | 100 | 90 | 90 | 90 | 100 | 90 | 90 | 

Reference: patent US20240041042A1, “1-(PYRIDYL)-5-AZINYLPYRAZOLE DERIVATIVES, AND THEIR USE FOR CONTROL OF UNDESIRED PLANT GROWTH” (Bayer Aktiengesellschaft, priority 2020, published 2024)
